Earlier results as cited in patent publication US12653843B2, “Compositions comprising extracellular matrix of primitive animal species and related methods” (University of Pittsburgh—Of the Commonwealth System of …, priority 2016, dated 2026).

Molecular target: ErbB2 (Homo sapiens, UniProt P04626)
Sequence (P04626 23-1255, species assumed): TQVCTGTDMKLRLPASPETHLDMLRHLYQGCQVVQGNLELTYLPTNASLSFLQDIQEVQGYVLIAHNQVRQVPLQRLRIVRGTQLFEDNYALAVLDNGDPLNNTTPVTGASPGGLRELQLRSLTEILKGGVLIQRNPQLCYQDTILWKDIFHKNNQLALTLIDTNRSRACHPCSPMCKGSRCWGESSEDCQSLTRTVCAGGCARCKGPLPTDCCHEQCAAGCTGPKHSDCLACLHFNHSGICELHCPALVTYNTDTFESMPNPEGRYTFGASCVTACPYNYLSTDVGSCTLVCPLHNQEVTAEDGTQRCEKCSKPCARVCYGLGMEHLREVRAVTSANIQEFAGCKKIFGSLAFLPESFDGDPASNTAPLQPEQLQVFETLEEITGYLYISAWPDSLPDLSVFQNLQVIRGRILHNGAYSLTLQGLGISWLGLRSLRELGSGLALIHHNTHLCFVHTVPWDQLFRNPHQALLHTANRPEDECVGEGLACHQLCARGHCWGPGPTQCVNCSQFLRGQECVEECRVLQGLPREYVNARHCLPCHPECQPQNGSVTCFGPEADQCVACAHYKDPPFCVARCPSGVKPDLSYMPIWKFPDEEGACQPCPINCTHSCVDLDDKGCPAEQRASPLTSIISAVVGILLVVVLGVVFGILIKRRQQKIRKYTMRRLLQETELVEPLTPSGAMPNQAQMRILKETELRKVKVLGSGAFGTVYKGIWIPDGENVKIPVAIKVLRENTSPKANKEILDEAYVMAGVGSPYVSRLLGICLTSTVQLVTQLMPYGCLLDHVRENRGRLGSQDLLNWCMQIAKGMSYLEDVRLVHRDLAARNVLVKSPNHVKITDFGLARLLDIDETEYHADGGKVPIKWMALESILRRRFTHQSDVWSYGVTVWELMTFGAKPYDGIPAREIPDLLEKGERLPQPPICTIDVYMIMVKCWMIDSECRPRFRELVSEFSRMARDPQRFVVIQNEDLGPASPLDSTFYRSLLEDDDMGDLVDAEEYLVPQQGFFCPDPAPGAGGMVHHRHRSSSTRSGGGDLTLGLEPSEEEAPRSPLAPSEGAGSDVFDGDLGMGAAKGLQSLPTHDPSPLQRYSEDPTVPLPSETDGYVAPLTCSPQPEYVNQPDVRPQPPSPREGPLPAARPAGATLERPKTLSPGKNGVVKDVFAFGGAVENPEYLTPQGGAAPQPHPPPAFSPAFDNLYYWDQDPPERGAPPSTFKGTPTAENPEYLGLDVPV

For `COc1cc(/C=C(\C#N)C(N)=O)cc(CSc2nc3ccccc3s2)c1O` [AG825], the “selectivity: inhibition of ErbB2 autophosphorylation versus ErbB1 (EGFR)” value is given as ~60 fold.
